Source: US11491168B2, “Combination of Bcl-2/Bcl-xL inhibitors and chemotherapeutic agent and use thereof” (ASCENTAGE PHARMA (SUZHOU) CO., LTD., priority 2019, dated 2022)
Several values for one entry are separate records, joined by “and”; a condition that tells them apart may be missing. Identical values can stand only once. Like-named read-outs stand apart in the source and are kept apart here.

Columns and labels:
[1] = tested on: NCI-N87 cells; assay: AnnexinV/PI staining apoptosis, NCI-N87; type: cell-based; settings: NCI-N87, 48 hours; Compound 31 0.3 μM, 5-FU 3 μM
Protocol: (§1) The inventors chose to combine Compound 31 with one of the most common chemotherapeutic drugs in clinic, 5-fluorouracil (5-FU). In order to investigate the effect and the potential mechanisms of Compound 31 and 5-FU on the growth of gastric cancer cells, the inventors used the AnnexinV/PI staining to detect the apoptosis of two gastric cancer cells, AGS and NCI-N87, 48 hours after the treatment with Compound 31 (0.3 μM), 5-FU (3 μM), and the combination at specified concentrations. […] In NCI-N87 cells, the combination group also achieved a higher apoptosis rate than the mono therapy groups, Compound 31 or 5-FU as a single agent leading to apoptosis rates of 24% or 18% while the combination group reaching an apoptosis rate of 46% (FIG. 29(a)).

[2] = tested on: AGS cells; assay: AnnexinV/PI staining apoptosis, AGS; type: cell-based; settings: 48 hours, Compound 31 0.3 μM, 5-FU 3 μM
Protocol: as §1

[3] = tested on: NCI-N87 xenograft; assay: NCI-N87 xenograft model, Compound 15 with 5-FU; settings: for mouse tumor volume upon the end point: Compound 15 50 mg/kg qd 10 days, 5-FU 25 mg/kg once a week for two weeks
[4] = tested on: metastatic solid tumors; assay: U.S. clinical trial as of Dec. 21, 2019; type: in vivo
Protocol: Three clinical trials (Phase I or Phase I/II) with similar study designs were conducted in the United States, Australia, and China. During the dose escalation phase, the patient received Compound 15 (10-400 mg) twice weekly or weekly intravenously for a 28-day treatment cycle. Tumor response assessment was performed every 2 cycles according to RECIST 1.1 criteria. The purpose of the study was to assess safety, maximum tolerated dose (MTD)/recommended phase II dose (RP2D), pharmacokinetics (PK), pharmacodynamics (PD), and the preliminary efficacy of Compound 15 as a single agent in metastatic solid tumors.
As of Dec. 21, 2019, 42 US patients with metastatic solid tumors (Table A) received Compound 15 treatment ranging from 10-400 mg in at least one 28-day cycle. The patients were treated in 2 cohorts. 31 patients in cohort 1 received Compound 15 twice a week (BIW) by intravenous (IV) infusion at a dose of 10 mg, 20 mg, 40 mg, 80 mg, 160 mg, 240 mg, 320 mg, or 400 mg; 11 patients in cohort 2 received Compound 15 once a week (QW) by IV infusion at a dose of 240 mg or 320 mg.

[5] = tested on: subcutaneous NCI-H146 lung cancer xenograft; assay: NCI-H146 lung cancer xenograft model (Example 8); type: in vivo, female SCID mice; settings: for RTV @day 21: Compound 15 20 mg/kg i.v. BIW, Irinotecan 5 mg/kg i.p. QW, Paclitaxel 10 mg/kg i.v. QW, Cisplatin 1 mg/kg i.p. Q4D; for mRECIST_best: best response during the treatment, PR partial response, CR complete response, SD stable disease, PD progressive disease; for T/C (%) @ day 21: doses as Table 6; for mRECIST_last: response on the last day of treatment, PR, CR, SD, PD
Protocol: The therapeutic efficacy of compound 15 alone and in multiple combinations in the treatment of subcutaneous NCI-H146 lung cancer xenograft model was evaluated.
1×10^7 NCI-H146 tumor cells were pre-treated in 0.1 mL of phosphate buffer and Matrigel (7:3) and inoculated into female SCID mice. The day of randomization was denoted as day 1. The treatment was initiated on day 1. The study was conducted in 8 groups of mice. See Table 6 for the mode of administration and doses. The entire study was taken down on day 21. The study was conducted in 40 mice. All the animals were randomized into 8 experimental groups.

[6] = activity compared with first generation BCL-2 inhibitor
[7] = target: Mcl-1 (Homo sapiens, UniProt Q07820); assay: binding to Mcl-1
Mcl-1, sequence (Q07820 whole entry): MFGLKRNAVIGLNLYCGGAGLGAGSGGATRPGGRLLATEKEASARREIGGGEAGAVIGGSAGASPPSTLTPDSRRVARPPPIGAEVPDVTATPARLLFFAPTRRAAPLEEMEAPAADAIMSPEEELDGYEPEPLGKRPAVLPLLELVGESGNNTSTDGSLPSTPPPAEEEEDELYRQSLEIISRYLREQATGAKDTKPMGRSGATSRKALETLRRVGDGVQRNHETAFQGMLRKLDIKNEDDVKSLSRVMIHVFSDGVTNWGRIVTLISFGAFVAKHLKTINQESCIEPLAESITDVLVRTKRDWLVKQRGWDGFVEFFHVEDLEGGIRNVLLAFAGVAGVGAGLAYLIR

[8] = tested on: SCLC patient-derived xenograft LU5188; assay: LU5188 SCLC patient-derived xenograft; type: in vivo, female NOD.SCID mice; settings: for T/C (%) @ day 21: doses as Table 3; for RTV @day 21: mean ± SEM, Compound 15 50 mg/kg i.v. BIW, Irinotecan 10 mg/kg i.p. Q4D, Paclitaxel 10 mg/kg i.v. Q4D
Protocol: (§2) The therapeutic efficacy of compound 15 alone and its multiple combinations in the treatment of subcutaneous HuPrime® Lung cancer xenograft model LU5250 and LU5188 in female NOD.SCID mice was evaluated.
(§3) Either LU5250 or LU5188 tumor mass with rough size of 3×3×3 mm^3 were inoculated into female NOD.SCID mice and the day of randomization was denoted as day 1. The treatment was initiated on day 1 when tumors approximated a mean volume 136 mm^3 of LU5250 and 155 mm^3 of LU5188, respectively. There were 6 groups enrolled in each model eventually. See Table 3 for the mode of administration and doses. Both models were taken down on day 21.

[9] = target: Bcl-w (Homo sapiens, UniProt Q92843); assay: binding to Bcl-w protein
Bcl-w, sequence (Q92843 whole entry): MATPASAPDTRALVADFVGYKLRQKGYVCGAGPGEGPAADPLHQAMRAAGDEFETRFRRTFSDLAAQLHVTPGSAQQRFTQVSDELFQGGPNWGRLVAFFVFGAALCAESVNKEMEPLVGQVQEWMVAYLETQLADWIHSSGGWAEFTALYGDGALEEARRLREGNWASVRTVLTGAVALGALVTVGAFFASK

[10] = tested on: platelet; assay: platelet toxicity; settings: versus first-generation BCL-2 inhibitors
[11] = tested on: metastatic solid tumors; assay: Phase I or I/II clinical trials, pooled results as of Jan. 31, 2019; type: in vivo
Protocol: Three clinical trials (Phase I or Phase I/II) with similar study designs were conducted in the United States, Australia, and China. […] Tumor response assessment was performed every 2 cycles according to RECIST 1.1 criteria.

[12] = tested on: SCLC patient-derived xenograft LU5250; assay: LU5250 SCLC patient-derived xenograft; type: in vivo, female NOD.SCID mice; settings: for T/C (%) @ day 21: doses as Table 3; for RTV @day 21: mean ± SEM, Compound 15 50 mg/kg i.v. BIW, Irinotecan 10 mg/kg i.p. Q4D, Paclitaxel 10 mg/kg i.v. Q4D
Protocol: as §2, §3

[13] = target: Bcl-xl (Homo sapiens, UniProt Q07817); assay: binding to Bcl-xl protein
Bcl-xl, sequence (Q07817 whole entry): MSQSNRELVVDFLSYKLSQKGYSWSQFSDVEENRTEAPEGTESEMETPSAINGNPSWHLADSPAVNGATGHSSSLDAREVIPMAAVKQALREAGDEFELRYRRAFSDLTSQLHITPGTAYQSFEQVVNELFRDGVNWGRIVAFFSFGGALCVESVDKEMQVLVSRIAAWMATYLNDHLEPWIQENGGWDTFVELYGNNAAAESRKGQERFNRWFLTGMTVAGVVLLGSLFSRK

[14] = tested on: human PC3 cell line prostate cancer xenograft; assay: PC3 prostate cancer xenograft model; settings: Compound 15 100 mg/kg; docetaxel 8 mg/kg
Protocol: (§4) Subcutaneous xenograft tumor model of human cancer was established in immunodeficient mouse by cell inoculation: tumor cells in logarithmic growth phase were collected, counted, and then re-suspended in 1×PBS. The concentration of the cell suspension was adjusted to 2.5-5×10^7/mL. Tumor cells were inoculated subcutaneously in the right back of the immunized normal mouse with a 1 mL syringe (4 gauge needle) at 5-10×10^6/0.2 mL/mouse.
(§5) Animal weight and tumor size were measured twice a week during the study. The animals were checked daily for morbility and etc. […] Mortality and clinical signs observed during the study were recorded in the raw data. […]
(§6) Tumor volume (TV) was calculated as: TV=a×b^2/2 wherein a and b represent the measured length and width of tumor, respectively.
(§7) Relative tumor volume (RTV) was calculated as: RTV=Vt/V1 wherein V1 was the tumor volume on the first day of dosing, and Vt was the tumor volume measured on day t after dosing.
(§8) Relative tumor proliferation rate T/C (%), as an indication of anti-tumor effectiveness, was calculated as: Relative tumor proliferation rate T/C (%)=(TRTV/CRTV)×100%, wherein TRTV was RTV in treatment group, and CRTV was RTV in vehicle control group. […]

[15] = tested on: MDA-MB-231 triple-negative breast cancer tumor cell line; assay: WST (CCK-8) anti-proliferation assay
Protocol: Cell plating: Anti-proliferation effects were detected by a CCK-8 (Cell Counting Kit-8) assay based on water soluble tetrazolium salt (WST).
The cells were seeded in 96-well plates. 95 μL complete medium was added to each negative control group, and 95 μL cell suspension in complete medium was added at a density of 5-10×10^4 cells/well to each well to be tested.
The MGC80-3 and SW620 used in the examples were purchased from the Cell Bank of the Shanghai Institute of Biochemistry and Cell Biology, Chinese Academy of Sciences. MDA-MB-231, PC-3, and NCI-H146 were available from the American Type Culture Collection (ATCC) under accession Nos. HTB-26, CRL-1435, and HTB-173, respectively. It should be noted that the cells used in the present disclosure are all available from ATCC. […]
Reading: At the end of the culture, for adherent cells, the old solution in the test wells was removed and 100 μl/well CCK-8 test solution (the corresponding medium containing 10% CCK-8, 5% FBS) was added. […]
The OD value was measured using a microplate reader (SpectraMax Plus 384, Molecular Devices, LLC., US) A450 nm. […] The percentage of cell viability was calculated by the following formula: (O.D. test well−O.D. blank control well)/(O.D. cell control well−O.D. blank control well)×100%.
The IC50 was calculated using the nonlinear regression data analysis method of Graphpad Prism 6.0 software.

[16] = tested on: human SW620 cell line colon cancer xenograft; assay: SW620 colon cancer xenograft model; type: in vivo, mice; settings: single agents: Compound 15 100 mg/kg; irinotecan 50 mg/kg
Protocol: as §4, §5, §6, §7, §8

[17] = tested on: NCI-N87 xenograft; assay: NCI-N87 xenograft model, Compound 15 single agent; type: in vivo, nude mice; settings: for mouse tumor volume upon the end point: tail vein injection, 10 consecutive days
Protocol: The NCI-N87 tumor-bearing mice were treated with different doses of Compound 15 by tail vein injection for 10 consecutive days.
The inventors extracted proteins from the removed tumor tissues and prepared tissue sections.

[18] = target: Bcl-2 (Homo sapiens, UniProt P10415); assay: binding to Bcl-2 protein
Bcl-2, sequence (P10415 whole entry): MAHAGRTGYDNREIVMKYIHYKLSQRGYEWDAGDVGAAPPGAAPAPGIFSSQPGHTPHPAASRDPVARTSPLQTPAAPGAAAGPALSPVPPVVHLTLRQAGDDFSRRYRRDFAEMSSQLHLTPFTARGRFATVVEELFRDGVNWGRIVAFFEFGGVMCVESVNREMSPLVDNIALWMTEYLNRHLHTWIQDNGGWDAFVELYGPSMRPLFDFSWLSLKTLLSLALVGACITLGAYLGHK

[19] = tested on: human MGC80-3 cell line gastric cancer xenograft; assay: MGC80-3 gastric cancer xenograft model
Protocol: as §4
Animal weight and tumor size were measured twice a week during the study. The animals were checked daily for morbility and etc. At the time of routine monitoring, the animal were checked for any effects of tumor growth and treatments on behaviors such as mobility, food and water consumption, body weight gain/loss, eyes, hairing and any other abnormalities. Mortality and clinical signs observed during the study were recorded in the raw data. The dosing of the drugs and the measurement of mouse weight and tumor volume were all conducted in a laminar flow cabinet. According to requirements of the study protocol, plasma and tumor tissue were collected, weighed and photographed at the end of last dosing. Plasma and tumor samples were frozen at −80° C. for later use.
as §6, §7
Relative tumor proliferation rate T/C (%), as an indication of anti-tumor effectiveness, was calculated as: Relative tumor proliferation rate T/C (%)=(TRTV/CRTV)×100%, wherein TRTV was RTV in treatment group, and CRTV was RTV in vehicle control group.
Tumor remission rate (%) was calculated by dividing the number of tumor bearing mice that show SD (stable disease), PR (partial regression) and CR (complete regression) after treatment by the total number of mice in the group×100%. Change of body weight (%)=(measured body weight−body weight at randomization)/body weight at randomization×100%.

[20] = FIG. 6: Compound 15 100 mg/kg, docetaxel 12 mg/kg, cisplatin 3 mg/kg

O=c1[nH]cc(F)c(=O)[nH]1 [Compound 5-FU, 5-fluorouracil, reference compound]
apoptosis rate [1]: 18%
apoptosis rate [2]: ~15%
mouse tumor volume upon the end point [3]: 2200 mm^3

Cc1c(S(C)(=O)=O)c(-c2cc(F)cc(N3CCN(c4ccc(NS(=O)(=O)c5ccc(N[C@H](CCN6CCC(C(=O)OCCP(=O)(O)O)CC6)CSc6ccccc6)c(S(=O)(=O)C(F)(F)F)c5)cc4)CC3)c2)c(-c2ccc(Cl)cc2)n1C(C)C [Compound 15, (R)-2-(1-(3-(4-(N-(4-(4-(3-(2-(4-chlorophenyl)-1-isopropyl-5-methyl-4-(methylsulfonyl)-1H-pyrrol-3-yl)-5-fluorophenyl)piperazin-1-yl)phenyl)sulfamoyl)-2-(trifluoromethylsulfonyl)phenylamino)-4-(phenylthio)butyl)piperidine-4-carbonyloxy)ethylphosphonic acid]
patients with partial response (PR) ([4]; 36 patients with post-baseline tumor measurements): 3
MTD/RP2D ([4]; QW): 240 mg
duration of PR ([4]; SCLC patient #002-001, 40 mg BIW): 19 cycles
accumulation ([4]; human, in vivo): No significant accumulation
time to resolution of platelet drop / thrombocytopenia ([4]; human, in vivo): 2 to 6 days
TRAE: alanine aminotransferase increased ([4]; human, in vivo, 28 day): 7.1%
TRAE: aspartate aminotransferase increased ([4]; human, in vivo, 28 day): 9.5%
TRAE: platelet count decreased ([4]; human, in vivo, 28 day): 14.3%
patients with ≥G3 treatment emergent adverse events (TRAEs) ([4]; human, in vivo, 28 day): 26.2%
Cmax and AUC versus dose ([4]; human, in vivo, iv): approximately dose proportional
RTV @day 21 [5]: 2.0 ± 0.3
mRECIST_best ([5]; progressive disease): 1/5 PD
mRECIST_best ([5]; stable disease): 4/5 SD,
T/C (%) @ day 21 [5]: 70.0%
mRECIST_last ([5]; progressive disease): 4/5 PD
mRECIST_last ([5]; stable disease): 1/5 SD,
activity relative to the first generation BCL-2 inhibitor [6]: about 10 times
binding to Mcl-1 [7]: binds weakly
T/C (%) @ day 21 [8]: 125.4%
RTV @day 21 [8]: 17.05 ± 6.59
IC50 [9]: 9.3 nM
platelet toxicity reduced [10]: 10-30 times
patients with partial remission (PR) ([11]; 19 evaluated SCLC patients, US patient, dose of 40 mg): 1
grade 3/4 AE: decreased lymphocyte count ([11]; 44 patients): 6.8%
grade 3/4 AE: elevated lipase ([11]; 44 patients): 6.8%
grade 3/4 AE: hyponatremia ([11]; 44 patients): 11.4%
tolerability ([11]; 44 patients, 7 dose levels, i.v. twice weekly or weekly): well tolerated at all tested dose levels
cases of stable disease in other tumor types ([11]; Australian studies, e.g. CRC): 5
AUC and Cmax on day 1 versus dose ([11]; dose range of 10-160 mg): increased proportionally with dose
MTD ([11]; pooled analysis): had not been reached
T/C (%) @ day 21 [12]: 136.8%
RTV @day 21 [12]: 9.75 ± 3.77
IC50 [13]: 4.4 nM
T/C (%) [14]: 84.4%
IC50 ([15]; Homo sapiens, MDA-MB-231, 72 h, read-out: IC50 (A alone), MDA-MB-231, 72 hours): 2600 nM
IC50 ([15]; read-out: IC50 (A alone), MDA-MB-231, 72 hours): 4550 nM
T/C (%) [16]: 60.6%
mouse tumor volume upon the end point [3]: 1600 mm^3
mouse body weight ([3]; mouse, in vivo): rebounded after a brief weight loss
mouse tumor volume upon the end point ([17]; 25 mg/kg): 700 mm^3
mouse tumor volume upon the end point ([17]; 50 mg/kg): 800 mm^3
percentage of Ki67-positive cells ([17]; 100 mg/kg group): significantly lower than other groups
mouse tumor volume upon the end point ([17]; 100 mg/kg): about 400 mm^3
cleaved-caspase3 and PARP-1 cleavage bands in the tumor tissue ([17]; 25, 50, 100 mg/kg): gradually increased as the dose increased
mouse body weight ([17]; among the four groups): no significant difference in body weight
weight and size of the xenograft tumors ([17]; as the dosing concentration increased): showed an evident trend of reduction
IC50 [18]: 1.6 nM

CCc1c2c(nc3ccc(OC(=O)N4CCC(N5CCCCC5)CC4)cc13)-c1cc3c(c(=O)n1C2)COC(=O)[C@]3(O)CC [Irinotecan, irinotecan]
RTV @day 21 [5]: 1.0 ± 0.2
mRECIST_best [5]: 3/5 PR and 2/5 SD
T/C (%) @ day 21 [5]: 34.4%
mRECIST_last [5]: 1/5 PR, and 3/5 SD, and 1/5 PD
T/C (%) @ day 21 [8]: 61.8%
RTV @day 21 [8]: 8.41 ± 2.49
T/C (%) @ day 21 [12]: 26.9%
RTV @day 21 [12]: 1.92 ± 0.24
T/C (%) [16]: 29.9%

CC(=O)O[C@H]1C(=O)[C@@]2(C)[C@H]([C@H](OC(=O)c3ccccc3)[C@]3(O)C[C@H](OC(=O)[C@H](O)[C@@H](NC(=O)c4ccccc4)c4ccccc4)C(C)=C1C3(C)C)[C@]1(OC(C)=O)CO[C@@H]1C[C@@H]2O [Paclitaxel, paclitaxel]
RTV @day 21 [5]: 1.4 ± 0.4
mRECIST_best [5]: 3/5 PR, and 2/5 SD
T/C (%) @ day 21 [5]: 48.4%
mRECIST_last [5]: 3/5 SD, and 2/5 PD
T/C (%) @ day 21 [8]: 151.1%
RTV @day 21 [8]: 20.55 ± 3.20
T/C (%) @ day 21 [12]: 32.6%
RTV @day 21 [12]: 2.33 ± 0.13

N.N.[Cl][Pt][Cl] [cisplatin]
RTV @day 21 [5]: 2.6 ± 0.2
mRECIST_best [5]: 2/5 SD, and 3/5 PD
T/C (%) @ day 21 [5]: 90.2%
mRECIST_last [5]: 5/5 PD
T/C (%) [19, 20]: 65.0%

CC(=O)O[C@@]12CO[C@@H]1C[C@H](O)[C@@]1(C)C(=O)[C@H](O)C3=C(C)[C@@H](OC(=O)[C@H](O)[C@@H](NC(=O)OC(C)(C)C)c4ccccc4)C[C@@](O)([C@@H](OC(=O)c4ccccc4)[C@H]21)C3(C)C [docetaxel]
T/C (%) ([19]; FIG. 5: Compound 15 100 mg/kg, docetaxel 8 mg/kg): 54.5%
T/C (%) [19, 20]: 39.0%
T/C (%) [14]: 72.4%
